The pKi is −log10 of the Ki, conventionally taken in molar units.

The structures appear in SMILES notation. pKi: −log10 of the molar value. Active and inactive are the calls of the source. The calls are words filed in the database; no cut-off is given here.

These results are taken from ChEMBL document CHEMBL5316267, “Subnanomolar Affinity and Selective Antagonism at α7 Nicotinic Receptor by Combined Modifications of 2-Triethylammonium Ethyl Ether of 4-Stilbenol (MG624)” (J Med Chem, 2023).

Assay [1] addresses Neuronal acetylcholine receptor; alpha3/beta4 (Homo sapiens, UniProt P30926+P32297). The assay is described as follows: Displacement of [3H]-Epibatidine from alpha3beta4 nAChR (unknown origin) expressed in SH-EP1 cell membrane assessed as inhibition constant by beta counter method. Type of assay: cell membranes. On the technique in general: Loss of bound radioactivity is the signal in a displacement assay; it reports binding, not function.

For assay [2], the target named is Neuronal acetylcholine receptor subunit alpha-7 (Homo sapiens) (UniProt P36544). The assay is described as follows: Antagonist activity at human alpha7 nAChR expressed in acetylcholine-induced Xenopus laevis oocytes treated for 1 sec followed by acetylcholine stimulation 1 min post-compound treatment at holding potential of -70 mV by two electrode voltage-clamp assay. The class given is cell-based. Particulars: Oocyte, filed as antagonist, time 61.0 sec. Background: Two-electrode voltage clamp is typically applied to oocytes expressing channels or transporters.
Sequence of Neuronal acetylcholine receptor subunit alpha-7 (Homo sapiens) (P36544 whole entry): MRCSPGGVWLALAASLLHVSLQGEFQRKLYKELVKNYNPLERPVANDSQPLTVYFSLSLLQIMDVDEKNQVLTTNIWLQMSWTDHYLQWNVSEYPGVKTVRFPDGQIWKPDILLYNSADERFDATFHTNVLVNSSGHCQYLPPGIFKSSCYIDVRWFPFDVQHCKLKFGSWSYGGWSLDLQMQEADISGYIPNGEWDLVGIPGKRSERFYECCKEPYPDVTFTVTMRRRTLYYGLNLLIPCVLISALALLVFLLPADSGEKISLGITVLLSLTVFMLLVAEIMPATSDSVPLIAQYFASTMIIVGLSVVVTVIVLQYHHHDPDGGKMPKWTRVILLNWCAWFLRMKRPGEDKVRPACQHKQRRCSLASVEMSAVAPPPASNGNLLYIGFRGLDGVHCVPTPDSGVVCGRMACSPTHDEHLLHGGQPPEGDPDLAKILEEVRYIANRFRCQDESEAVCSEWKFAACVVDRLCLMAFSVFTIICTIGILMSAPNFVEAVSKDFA

For assay [3], the target named is Neuronal acetylcholine receptor; alpha4/beta2 (Homo sapiens, UniProt P17787+P43681). The assay is described as follows: Displacement of [3H]-Epibatidine from alpha4beta2 nAChR (unknown origin) expressed in HEK293 cell membrane assessed as inhibition constant by beta counter method. The class given is cell membranes.
Sequence of Neuronal acetylcholine receptor; alpha4/beta2 (P17787 whole entry): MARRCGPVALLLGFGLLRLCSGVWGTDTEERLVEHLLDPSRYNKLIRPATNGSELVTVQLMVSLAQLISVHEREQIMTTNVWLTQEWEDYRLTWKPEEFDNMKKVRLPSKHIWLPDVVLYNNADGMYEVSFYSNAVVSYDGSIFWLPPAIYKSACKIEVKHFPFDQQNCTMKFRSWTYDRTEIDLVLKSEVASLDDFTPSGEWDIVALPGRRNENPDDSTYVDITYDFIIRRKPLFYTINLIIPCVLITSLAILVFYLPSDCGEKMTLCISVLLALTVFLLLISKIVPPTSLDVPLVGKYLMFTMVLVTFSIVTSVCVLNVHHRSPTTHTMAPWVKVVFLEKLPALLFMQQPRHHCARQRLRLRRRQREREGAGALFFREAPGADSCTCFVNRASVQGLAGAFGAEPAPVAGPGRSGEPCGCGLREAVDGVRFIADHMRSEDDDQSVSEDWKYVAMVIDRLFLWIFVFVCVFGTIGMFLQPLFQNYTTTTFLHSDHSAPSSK
Sequence of Neuronal acetylcholine receptor; alpha4/beta2 (P43681 whole entry): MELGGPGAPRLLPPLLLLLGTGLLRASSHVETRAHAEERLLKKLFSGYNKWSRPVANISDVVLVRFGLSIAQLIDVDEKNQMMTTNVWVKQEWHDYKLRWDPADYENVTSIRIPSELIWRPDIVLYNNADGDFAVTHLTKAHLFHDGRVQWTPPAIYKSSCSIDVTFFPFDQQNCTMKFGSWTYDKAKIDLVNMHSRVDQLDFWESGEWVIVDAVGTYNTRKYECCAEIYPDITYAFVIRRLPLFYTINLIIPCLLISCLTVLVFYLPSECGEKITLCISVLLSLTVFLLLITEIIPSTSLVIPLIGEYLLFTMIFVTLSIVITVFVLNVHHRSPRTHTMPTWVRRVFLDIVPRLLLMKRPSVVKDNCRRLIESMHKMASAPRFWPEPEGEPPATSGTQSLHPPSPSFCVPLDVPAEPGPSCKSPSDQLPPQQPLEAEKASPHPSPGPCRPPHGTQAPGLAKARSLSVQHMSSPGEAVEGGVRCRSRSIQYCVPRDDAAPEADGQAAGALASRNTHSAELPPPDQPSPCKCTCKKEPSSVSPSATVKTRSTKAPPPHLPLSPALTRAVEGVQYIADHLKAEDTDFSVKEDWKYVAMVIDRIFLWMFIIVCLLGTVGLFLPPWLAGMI
Assay [4] has as its target Neuronal acetylcholine receptor; alpha9/alpha10 (Homo sapiens) (UniProt Q9UGM1+Q9GZZ6). The assay is described as follows: Partial agonist activity at human alpha9alpha10 nAChR expressed in acetylcholine-induced Xenopus laevis oocytes assessed as residual activity treated for 1 sec followed by acetylcholine stimulation for 1 min post-compound treatment at holding potential of -70 mV by two electrode voltage-clamp assay. Type of assay: cell-based. Particulars: Oocyte, time 61.0 sec.

Sequence of Neuronal acetylcholine receptor; alpha3/beta4 (P30926 whole entry): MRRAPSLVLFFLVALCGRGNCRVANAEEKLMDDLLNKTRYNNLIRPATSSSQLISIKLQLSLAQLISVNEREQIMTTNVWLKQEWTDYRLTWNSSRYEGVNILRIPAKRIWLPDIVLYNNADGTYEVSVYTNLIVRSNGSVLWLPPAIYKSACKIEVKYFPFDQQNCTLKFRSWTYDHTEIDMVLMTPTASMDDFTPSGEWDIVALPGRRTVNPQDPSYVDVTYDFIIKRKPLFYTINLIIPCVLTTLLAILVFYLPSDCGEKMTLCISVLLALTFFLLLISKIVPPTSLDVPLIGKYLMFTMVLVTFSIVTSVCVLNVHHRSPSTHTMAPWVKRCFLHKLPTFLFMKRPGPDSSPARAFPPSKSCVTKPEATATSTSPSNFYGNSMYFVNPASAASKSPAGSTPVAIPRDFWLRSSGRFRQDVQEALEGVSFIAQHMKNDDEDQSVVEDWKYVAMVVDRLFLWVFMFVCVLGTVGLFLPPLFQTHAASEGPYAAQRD
Sequence of Neuronal acetylcholine receptor; alpha3/beta4 (P32297 whole entry): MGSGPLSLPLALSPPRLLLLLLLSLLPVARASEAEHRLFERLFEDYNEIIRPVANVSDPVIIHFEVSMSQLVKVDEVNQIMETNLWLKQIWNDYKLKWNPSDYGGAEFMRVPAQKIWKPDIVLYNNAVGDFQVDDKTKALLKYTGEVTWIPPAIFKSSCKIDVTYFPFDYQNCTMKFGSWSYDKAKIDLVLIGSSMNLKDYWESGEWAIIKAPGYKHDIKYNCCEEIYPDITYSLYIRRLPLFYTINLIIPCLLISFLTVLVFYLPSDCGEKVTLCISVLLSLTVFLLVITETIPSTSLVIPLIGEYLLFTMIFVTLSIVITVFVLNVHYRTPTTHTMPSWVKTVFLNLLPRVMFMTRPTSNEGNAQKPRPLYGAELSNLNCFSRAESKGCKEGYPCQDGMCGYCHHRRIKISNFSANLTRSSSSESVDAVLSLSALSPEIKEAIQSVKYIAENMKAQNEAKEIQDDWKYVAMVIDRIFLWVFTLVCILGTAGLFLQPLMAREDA

For `CC[N+](CC)(CC)CCOc1ccc(-c2cccc3ccccc23)cc1`, the pKi in assay [1] is 7.01.
Regarding `C[N+]1(C)CC[C@@H](Oc2ccc(-c3ccc4[nH]ccc4c3)cc2)C1`, the result in assay [2] was Active.
Turning to `CC[N+](CC)(CC)CCOc1ccc(OCc2ccccc2)cc1`, the pKi in assay [3] was 5.12.
As to `CC[N+](CC)(CC)CCOc1ccc(CCc2ccccc2)cc1`, the outcome in assay [4] was inactive.
